Legend:
[1] = biological target: T1, human dopamine D2L receptors (long isoform) (Homo sapiens, UniProt P14416); assay: Receptor binding study, dopamine D2L receptor ([125I]iodospiperone displacement), selectivity vs D3; details: selectivity ratio, HEK-293 membranes
T1 construct: expressed in transfected cells; host or cells: HEK-293
Protocol: (§1) The substance to be tested was either dissolved in methanol/Chremophor® (BASF SE) or in dimethyl sulfoxide and then diluted with water to the desired concentration.
(§2) Each assay mixture was run in triplicate. • The incubation buffer contained 50 mM tris, 120 mM NaCl, 5 mM KCl, 2 mM CaCl2, 2 mM MgCl2 and 0.1% bovine serum albumin, 10 μM quinolone and 0.1% ascorbic acid (prepared fresh daily). […] Each assay mixture was run in triplicate. • The incubation buffer contained 50 mM tris, 120 mM NaCl, 5 mM KCl, 2 mM CaCl2, 2 mM MgCl2 and 0.1% bovine serum albumin. The buffer was adjusted to pH 7.4 with HCl. c) Measurement and Analysis: • After having been incubated at 25° C. for 60 minutes, the assay mixtures were filtered through a Whatman GF/B glass fiber filter under vacuum using a cell collecting device. The filters were transferred to scintillation viols using a filter transfer system. After 4 ml of Ultima Gold® (Packard) have been added, the samples were shaken for one hour and the radioactivity was then counted in a Beta-Counter (Packard, Tricarb 2000 or 2200CA).

[2] = Determination of the microsomal half-life / microsomal clearance, rat; type: in vitro ADME; details: rat liver microsomes, 0.5 μM test substance, 0.25 mg microsomal protein/ml, NADPH, 37° C.
Protocol: (§3) The metabolic stability of the compounds of the invention was determined in the following assay.
(§4) The test substances were incubated in a concentration of 0.5 μM as follows:
(§5) 0.5 μM test substance are preincubated together with liver microsomes from different species (from rat, human or other species) (0.25 mg of microsomal protein/ml) in 0.05 M potassium phosphate buffer of pH 7.4 in microtiter plates at 37° C. for 5 min. The reaction is started by adding NADPH (1 mg/mL). After 0, 5, 10, 15, 20 and 30 min, 50 μl aliquots are removed, and the reaction is immediately stopped and cooled with the same volume of acetonitrile. The samples are frozen until analyzed. The remaining concentration of undegraded test substance is determined by MSMS. The half-life (T½) is determined from the gradient of the signal of test substance/unit time plot, it being possible to calculate the half-life of the test substance, assuming first order kinetics, from the decrease in the concentration of the compound with time. The microsomal clearance (mCl) is calculated from mCl=ln 2/T½/(content of microsomal protein in mg/ml)×1000 [ml/min/mg] (modified from references: Di, The Society for Biomoleculur Screening, 2003, 453-462; Obach, DMD, 1999 vol 27. N 11, 1350-1359).

[3] = Determination of the microsomal half-life / microsomal clearance, human; type: in vitro ADME; details: human liver microsomes, 0.5 μM test substance, 0.25 mg microsomal protein/ml, NADPH, 37° C.
Protocol: as §3, §4, §5

[4] = biological target: T2, human dopamine D3 receptors (Homo sapiens, UniProt P35462); assay: Receptor binding study, dopamine D3 receptor ([125I]-iodosulpride displacement); details: membranes of HEK-293 cells, 0.1 nM [125I]-iodosulpride, 25° C., 60 minutes
T2 construct: expressed in transfected cells; host or cells: HEK-293
Protocol: as §1, §2

T2 sequence (P35462 whole entry): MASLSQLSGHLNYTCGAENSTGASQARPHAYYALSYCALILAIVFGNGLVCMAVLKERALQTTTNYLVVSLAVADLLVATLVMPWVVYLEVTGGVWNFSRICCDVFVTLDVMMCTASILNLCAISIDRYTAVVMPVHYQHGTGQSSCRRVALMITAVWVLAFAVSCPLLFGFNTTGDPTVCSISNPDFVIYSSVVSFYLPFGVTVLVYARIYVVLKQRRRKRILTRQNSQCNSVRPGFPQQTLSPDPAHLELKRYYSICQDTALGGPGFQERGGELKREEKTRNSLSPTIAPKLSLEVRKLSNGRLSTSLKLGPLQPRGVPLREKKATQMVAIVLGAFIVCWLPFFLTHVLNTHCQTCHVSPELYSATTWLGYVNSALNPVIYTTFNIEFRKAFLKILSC
T1 sequence (P14416 whole entry, canonical isoform): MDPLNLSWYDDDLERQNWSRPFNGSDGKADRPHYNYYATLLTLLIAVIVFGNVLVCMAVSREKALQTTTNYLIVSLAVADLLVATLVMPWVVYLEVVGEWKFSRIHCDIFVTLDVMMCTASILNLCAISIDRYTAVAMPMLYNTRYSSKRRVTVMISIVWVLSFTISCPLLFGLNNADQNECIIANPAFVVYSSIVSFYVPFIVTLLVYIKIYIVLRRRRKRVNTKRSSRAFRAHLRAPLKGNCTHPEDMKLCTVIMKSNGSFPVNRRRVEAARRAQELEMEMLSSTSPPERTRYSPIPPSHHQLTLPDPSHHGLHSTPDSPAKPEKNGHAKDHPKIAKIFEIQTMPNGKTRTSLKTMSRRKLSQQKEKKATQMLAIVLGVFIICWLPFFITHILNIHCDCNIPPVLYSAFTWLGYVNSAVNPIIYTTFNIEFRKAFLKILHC

Compound	D2/D3 (Ki (D2L)/Ki (D3)) [1]	Rat mCl [2]	Human mCl [3]	Ki [4] [nM]
CC(=O)N[C@H]1CC[C@H](CCN2CCN(c3cc(CO)nc(C(C)(C)C)n3)CC2)CC1 [Compound 22, trans-N-[4-[2-[4-[2-tert-butyl-6-(hydroxymethyl)pyrimidin-4-yl]piperazin-1-yl]ethyl]cyclohexyl]acetamide]	+++ (+++>50)	+ (+: 20-120 μl min^−1 mg^−1)	+ (+: 20-120 μl min^−1 mg^−1)	< 50
trans-N-[4-[2-[4-(2-tert-butyl-6-tetrahydrofuran-3-yl-pyrimidin-4-yl)piperazin-1-yl]ethyl]cyclohexyl]formamide [Compound 27]	+++ (+++>50)	+ (+: 20-120 μl min^−1 mg^−1)	+ (+: 20-120 μl min^−1 mg^−1)	< 10
COCCc1cc(N2CCN(CC[C@H]3C[C@@H](NC(C)=O)C3)C[C@@H]2C)nc(C(C)(C)C)n1 [Compound 31, cis-N-[3-[2-[(3S)-4-[2-tert-butyl-6-(2-methoxyethyl)pyrimidin-4-yl]-3-methyl-piperazin-1-yl]ethyl]cyclobutyl]acetamide]	+ (+>10)	+ (+: 20-120 μl min^−1 mg^−1)	+ (+: 20-120 μl min^−1 mg^−1)	< 10
CC(=O)N[C@H]1CC[C@H](CCN2CCN(c3cc(CCO)nc(C(C)(C)C)n3)C[C@H]2C)CC1 [Compound 26, trans-N-[4-[2-[(2R)-4-[2-tert-butyl-6-(2-hydroxyethyl)pyrimidin-4-yl]-2-methyl-piperazin-1-yl]ethyl]cyclohexyl]acetamide]	–	+ (+: 20-120 μl min^−1 mg^−1)	+ (+: 20-120 μl min^−1 mg^−1)	–
CC(=O)N[C@H]1CC[C@@H](CCN2CCN(c3cc(CCOC(F)(F)F)nc(C(C)(C)C)n3)CC2)CC1 [Compound 10a, cis N-[4-(2-{4-[2-tert-Butyl-6-(2-trifluoromethoxy-ethyl)-pyrimidin-4-yl]-piperazin-1-yl}-ethyl)-cyclohexyl]-acetamide]	++ (++>20)	–	–	< 10
COCCc1cc(N2CCN(CC[C@@H]3CC[C@@H](NC(C)=O)C3)CC2)nc(C(C)(C)C)n1 [Compound 14, trans-N-[(1R,3S)-3-[2-[4-[2-tert-butyl-6-(2-methoxyethyl)pyrimidin-4-yl]piperazin-1-yl]ethyl]cyclopentyl]acetamide]	+++ (+++>50)	+ (+: 20-120 μl min^−1 mg^−1)	+ (+: 20-120 μl min^−1 mg^−1)	< 50
CC(=O)N[C@H]1CC[C@H](CCN2CCN(c3cc(CCOC(F)F)nc(C(C)(C)C)n3)[C@@H](C)C2)CC1 [Compound 32, trans-N-[4-[2-[(3S)-4-[2-tert-butyl-6-[2-(difluoromethoxy)ethyl]pyrimidin-4-yl]-3-methyl-piperazin-1-yl]ethyl]cyclohexyl]acetamide]	+++ (+++>50)	∘ (∘: >120 μl min^−1 mg^−1)	+ (+: 20-120 μl min^−1 mg^−1)	< 10
COCCc1cc(N2CCN(CC[C@H]3CC[C@H](NC(C)=O)CC3)[C@H](C)C2)nc(C(C)(C)C)n1 [Compound 5, trans-N-[4-(2-{(2R)-4-[2-tert-Butyl-6-(2-methoxy-ethyl)-pyrimidin-4-yl]-2-methyl-piperazin-1-yl}-ethyl)-cyclohexyl]-acetamide]	+++ (+++>50)	+ (+: 20-120 μl min^−1 mg^−1)	+ (+: 20-120 μl min^−1 mg^−1)	< 50
COCCc1cc(N2CCN(CC[C@H]3C[C@@H](NC(C)=O)C3)CC2)nc(C(C)(C)C)n1.O=C(O)C(F)(F)F [Compound 4a, cis-N-[3-(2-{4-[2-tert-Butyl-6-(2-methoxy-ethyl)-pyrimidin-4-yl]-piperazin-1-yl}-ethyl)-cyclobutyl]-acetamide trifluoroacetate]	–	+ (+: 20-120 μl min^−1 mg^−1)	+ (+: 20-120 μl min^−1 mg^−1)	–
COCCc1cc(N2CCN(CC[C@H]3CC[C@H](NC=O)CC3)[C@H](C)C2)nc(C(C)(C)C)n1 [Compound 24, trans-N-[4-[2-[(2R)-4-[2-tert-butyl-6-(2-methoxyethyl)pyrimidin-4-yl]-2-methyl-piperazin-1-yl]ethyl]cyclohexyl]formamide]	+++ (+++>50)	+ (+: 20-120 μl min^−1 mg^−1)	+ (+: 20-120 μl min^−1 mg^−1)	< 50
COCCc1cc(N2CCN(CCC3CC(NC=O)C3)C[C@@H]2C)nc(C(C)(C)C)n1 (stereo partly drawn) [Compound 28, N-[3-[2-[(3S)-4-[2-tert-butyl-6-(2-methoxyethyl)pyrimidin-4-yl]-3-methyl-piperazin-1-yl]ethyl]cyclobutyl]formamide]	+ (+>10)	+ (+: 20-120 μl min^−1 mg^−1)	+ (+: 20-120 μl min^−1 mg^−1)	< 50
COCCc1cc(N2CCN(CC[C@H]3CC[C@H](NC=O)CC3)C[C@H]2C)nc(C(C)(C)C)n1 [Compound 19, trans-N-[4-[2-[(3R)-4-[2-tert-butyl-6-(2-methoxyethyl)pyrimidin-4-yl]-3-methyl-piperazin-1-yl]ethyl]cyclohexyl]formamide]	+++ (+++>50)	–	+ (+: 20-120 μl min^−1 mg^−1)	< 50
COCCc1cc(N2CCN(CC[C@@H]3CC[C@H](NC(C)=O)C3)CC2)nc(C(C)(C)C)n1 [Compound 16, cis-N-[(1S,3S)-3-[2-[4-[2-tert-butyl-6-(2-methoxyethyl)pyrimidin-4-yl]piperazin-1-yl]ethyl]cyclopentyl]acetamide]	+++ (+++>50)	+ (+: 20-120 μl min^−1 mg^−1)	+ (+: 20-120 μl min^−1 mg^−1)	< 50
CC(=O)N[C@H]1CC[C@H](CCN2CCN(c3cc(CCO)nc(C(C)(C)C)n3)[C@@H](C)C2)CC1 [Compound 25, trans-N-[4-[2-[(3S)-4-[2-tert-butyl-6-(2-hydroxyethyl)pyrimidin-4-yl]-3-methyl-piperazin-1-yl]ethyl]cyclohexyl]acetamide]	+++ (+++>50)	+ (+: 20-120 μl min^−1 mg^−1)	+ (+: 20-120 μl min^−1 mg^−1)	< 10
COCCc1cc(N2CCN(CC[C@H]3C[C@H](NC=O)C3)CC2)nc(C(C)(C)C)n1 [Compound 18, N-[trans-3-[2-[4-[2-tert-butyl-6-(2-methoxyethyl)pyrimidin-4-yl]piperazin-1-yl]ethyl]cyclobutyl]formamide]	++ (++>20)	∘ (∘: >120 μl min^−1 mg^−1)	+ (+: 20-120 μl min^−1 mg^−1)	< 50
CC(=O)N[C@H]1CC[C@H](CCN2CCN(c3cc(CCO)nc(C(C)(C)C)n3)[C@H](C)C2)CC1 [Compound 29, trans-N-[4-[2-[(3R)-4-[2-tert-butyl-6-(2-hydroxyethyl)pyrimidin-4-yl]-3-methyl-piperazin-1-yl]ethyl]cyclohexyl]acetamide]	+++ (+++>50)	+ (+: 20-120 μl min^−1 mg^−1)	+ (+: 20-120 μl min^−1 mg^−1)	< 50
COCCc1cc(N2CCN(CC[C@H]3CC[C@@H](NC(C)=O)CC3)CC2)nc(C(C)(C)C)n1 [Compound 3, cis-N-[4-(2-{4-[2-tert-Butyl-6-(2-methoxy-ethyl)-pyrimidin-4-yl]-piperazin-1-yl}-ethyl)-cyclohexyl]-acetamide]	–	+ (+: 20-120 μl min^−1 mg^−1)	+ (+: 20-120 μl min^−1 mg^−1)	–
COCc1cc(N2CCN(CC[C@H]3CC[C@H](NC=O)CC3)CC2)nc(C(C)(C)C)n1 [Compound 21, trans-N-[4-[2-[4-[2-tert-butyl-6-(methoxymethyl)pyrimidin-4-yl]piperazin-1-yl]ethyl]cyclohexyl]formamide]	–	–	+ (+: 20-120 μl min^−1 mg^−1)	–
